For one molecule, Kd results are on record in PMC3832616, “Crystal Structure of the Pleckstrin Homology Domain from the Ceramide Transfer Protein: Implications for Conformational Change upon Ligand Binding” (PLoS ONE, 2013).

The target in this assay is T1, Ceramide transfer protein (CERT) (Homo sapiens, UniProt Q9Y5P4).
T1 construct: gene CERT1; PH domain, residues 20–122 (three extra amino acids G-E-F before residue 20)
T1 sequence (Q9Y5P4 20-122): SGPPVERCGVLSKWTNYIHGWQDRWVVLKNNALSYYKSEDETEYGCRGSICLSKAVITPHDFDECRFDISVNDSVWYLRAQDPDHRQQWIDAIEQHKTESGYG
Briefly: […]-1H HSQC NMR chemical shift titration, global fit. Format: binding.

Usually Kd stands for the free concentration of one partner at which half of the binding sites on the other are occupied at equilibrium, for simple one-to-one binding. Consider `CCCCCC(=O)OC[C@H](COP(=O)(O)O[C@H]1[C@H](O)[C@@H](O)[C@H](OP(=O)(O)O)[C@@H](O)[C@H]1O)OC(=O)CCCCC` [diC6-PtdIns(4)P], for which the Kd stood at 470 ± 14 µM.
